Test results as given in US20110177161A1, “PHARMACEUTICAL COMPOSITIONS OF [5(S)-(2'-HYDROXYETHOXY)-20(S)-CAMPTOTHECIN” (DR. REDDY'S LABORATORIES LIMITED, priority 2007, published 2011).

Assays:
[1] = Physicochemical characteristics of drug substance, powder composition, blend and lyophilized product
Excerpt: Another indication of the physicochemical characteristics of the powder composition is the density properties such as bulk and tapped density. Bulk density is described as untapped or tapped. Untapped bulk density of a substance is the undisturbed packing density of that substance and tapped bulk density relates to the packing density after tapping a bed of substance until no change in the packing density is seen. Bulk density and tapped density can be determined using compendial bulk density apparatus, the method being given in United States Pharmacopeia 29, United States Pharmacopeial Convention, Inc., Rockville, Md., 2005, at pages 2638-2639. A higher bulk density indicates a dense material allowing a higher dose to be filled into a given size capsule for example. The powder compositions can have bulk densities from about 0.8 g/ml to about 0.2 g/ml, or from about 0.6 g/ml to about 0.2 g/ml.
The Hausner ratio is a measure of inter-particle friction and the potential powder arch or bridge strength and stability (Hausner, H. H. Friction conditions in a mass of metal powders. International Journal of Powder Metallurgy 1967, 3 (4), pages 7-13). It has been widely used to estimate the flow properties of powders, blends, granules and other such particles or aggregates and is expressed as the ratio of tapped bulk density to the untapped bulk density of the substance. Hausner ratio used herein is defined as ratio of tapped to untapped bulk densities. A Hausner ratio of <1.2 indicates good flow while ratio >1.5 indicate poor flow. The powder compositions can have a Hausner ratio less than 1.5 or less than 1.2.
Carr index as used herein is defined as the percent compressibility which is a percentage ratio of the difference between tapped bulk density and initial bulk density to tapped bulk density. Carr index values between 5-15% represent materials with excellent flowability, values between 18-21% represent fair-flowability and values above 40% represent very poor flowability. The powder compositions of the invention can have Carr index values less than 40% or less than 21% or less than 15%.
Table 1 describes the physicochemical characteristics of DRF-(5S,20S)-1042, which is used in the examples below.
The powder composition and formulation blend along with their placebo have been characterized for their physical parameters and the data has been tabulated in table 11.
After completion of lyophilization cycle the vials were sealed using 20 mm aluminum flip-off seals. The resulting lyophilized product was tested for various parameters as per Table 19.

[2] = Storage stability of powder composition and capsules (HPLC impurities, assay); type: physicochemical; details: Table 13; E* (S-isomer)
Procedure: Samples are analyzed by HPLC using a Chiralcel OD-H 250×4.6 mm column with a 5 μm particle size, at a wavelength of 257 nm using a variable wavelength UV detector, and a mobile phase comprising buffer (0.01 M KH2PO4; pH 3.0±0.1): acetonitrile (68:32% v/v), flow rate 1 ml/minute.
For the determination of the R-isomer impurity in the compositions, conditions essentially similar to the ones described above are used. The mobile phase comprises buffer (pH 3.0±0.1): acetonitrile (76:24% v/v).
For impurities other than the R-isomer the HPLC analysis comprises a Waters HPLC system equipped with a variable wavelength UV detector using symmetry C18, 250 column with a 5 μm particle size, at a wavelength of 257 nm, column temperature of 40° C. The mobile phase comprises
The capsules of Example 9B were charged for stability for about 3 months at different temperature conditions such as 2-8° C., 25° C. and the samples were analyzed by an HPLC procedure described above.
The powder composition of Example 13 was filled in amber coloured glass vials and sealed. Both initial sample and samples exposed at 25° C./60% RH (relative humidity), 30° C./65% RH, 40° C./75% RH for period of 3 days were analyzed for impurities by using HPLC as per the process described above.
The capsules have been exposed at 25° C./60% RH, 30° C./65% RH and 40° C./75% RH for a period of 3 months and data has been tabulated in Table 13.
The capsules packed in HDPE containers were exposed to different stability conditions such as 40° C./75% RH, 30° C./65% RH, 25° C./60% RH, 2-8° C. for about 6-12 months.

[3] = test system: 34 human cancer cell lines; assay: In vitro cell growth assay, Sulphorhodamine B (SRB); type: cell-based; details: 48 h exposure
Procedure: Cell proliferation was evaluated by Sulphorhodamine B (SRB) assay where the amount of dye bound to the cells after staining gives a measure of cell growth. Refer to: JNCI, vol 83, No. 11, Jun. 5, 1991, which is incorporated herein by reference.
Briefly, cells (34 human cancer cell lines represented by bladder, breast, CNS, colon, epidermoid, lung, ovarian, melanoma, prostate, renal and uterine cancers) were seeded on a 96-well cell culture plates at a concentration of 10,000 cells per well and incubated at 37 degree C. in a CO2 incubator. Twenty-four hours later, cells were treated with different concentrations of […] dissolved in DMSO to a final concentration of 0.05% in the culture medium and exposed for 48 h. Cells were fixed by adding ice-cold 50% trichloroacetic acid (TCA) and incubating for 1 h at 4° C. The plates were washed with distilled water, air dried and stained with SRB solution (0.4% wt/vol in 1% Acetic acid) for 10 min at room temperature. Unbound SRB was removed by washing thoroughly with 1% acetic acid and the plates were air-dried. The bound SRB stain was solubilized with 10 mM Tris buffer, and the optical densities were read on a spectrophotometric plate reader at a single wavelength of 515 nm. […] From the optical densities the percentage growths were calculated using the following formulae: […]

SMILES: CC[C@@]1(O)C(=O)OCc2c1cc1n(c2=O)[C@@H](OCCO)c2cc3ccccc3nc2-1 [DRF-(5S,20S)-1042, 5(S)-(2′-hydroxyethoxy)-20(S)-camptothecin]
- Bulk density ([1]; drug substance): 0.17 g/mL
- Carr Index ([1]; drug substance): 46.5%
- Hausner ratio ([1]; drug substance): 1.9
- Moisture content ([1]; drug substance): 0.2 % w/w
- Tapped density ([1]; drug substance): 0.31 g/mL
- Particle size D10 ([1]; lot used for the examples): D10 = 3.6 μm
- Particle size D50 ([1]; lot used for the examples): D50 = 10.9 μm
- Particle size D90 ([1]; lot used for the examples): D90 = 34.0 μm
- A = DRF (5R,20S)-1042 [2]: 1.11 % Peak Area
- B = Decarboxylated impurity [2]: 0.02 % Peak Area
- C = Dimer impurity [2]: 0.35 % Peak Area
- D = Total impurities excluding DRF (5R,20S)-1042 [2]: 0.96 % Peak Area
- GI50 [3]: 5 µM
